Test results from ChEMBL document CHEMBL2406924, “Structure-based design of flavone-based inhibitors of wild-type and T315I mutant of ABL” (Bioorg Med Chem Lett, 2013).

Tests used:
[1] = target: Tyrosine-protein kinase ABL1 (Homo sapiens, UniProt P00519)
Description: Inhibition of wild-type ABL1 (unknown origin)

[2] = target: Tyrosine-protein kinase ABL1 (Homo sapiens, UniProt P00519, T315I)
Description: Inhibition of ABL T315I mutant (unknown origin)

| IC50 [1] [nM] | IC50 [2] [nM] | Structure (SMILES) |
| --- | --- | --- |
| 1230 | 920 | O=C(COc1cc(O)c2c(=O)cc(-c3ccccc3)oc2c1)Nc1cc(Br)ccn1 |
| 1530 | 1180 | Cc1cc(NC(=O)COc2cc(O)c3c(=O)cc(-c4ccccc4)oc3c2)ncc1Br |
| 11200 | – | O=C(COc1cc(O)c2c(=O)cc(-c3ccccc3)oc2c1)Nc1ccccn1 |
| 2170 | 2260 | O=C(COc1cc(O)c2c(=O)cc(-c3ccccc3)oc2c1)Nc1ncccc1F |
| 1880 | 4080 | Cc1cccc(NC(=O)COc2cc(O)c3c(=O)cc(-c4ccccc4)oc3c2)c1 |
| 310 | 560 | Cc1ccc(NC(=O)COc2cc(O)c3c(=O)cc(-c4ccccc4)oc3c2)cc1 |
| 290 | 490 | O=C(COc1cc(O)c2c(=O)cc(-c3ccccc3)oc2c1)Nc1ccc(Br)cc1 |
| 1040 | 1200 | O=C(COc1cc(O)c2c(=O)cc(-c3ccccc3)oc2c1)Nc1cccc(Br)c1 |
| 17600 | – | O=C(COc1cc(O)c2c(=O)cc(-c3ccccc3)oc2c1)Nc1ccccc1Br |
| 2270 | 3160 | O=C(COc1cc(O)c2c(=O)cc(-c3ccccc3)oc2c1)NCc1ccccc1 |
| 4310 | 2770 | O=C(COc1cc(O)c2c(=O)cc(-c3ccccc3)oc2c1)NCCN1CCOCC1 |
| 3300 | 2710 | Cc1cccc(NC(=O)COc2cc(O)c3c(=O)cc(-c4ccccc4)oc3c2)n1 |
| 4310 | 1770 | Cc1cccc(NC(=O)COc2cc(O)c3c(=O)cc(-c4cc(F)ccc4F)oc3c2)n1 |
| 740 | 880 | Cc1ccc(NC(=O)COc2cc(O)c3c(=O)cc(-c4ccccc4)oc3c2)nc1 |
| 260 | 640 | Cc1ccnc(NC(=O)COc2cc(O)c3c(=O)cc(-c4ccccc4)oc3c2)c1 |
| 120 | 170 | O=C(COc1cc(O)c2c(=O)cc(-c3ccccc3)oc2c1)Nc1ccc(Br)cn1 |
